Test [1] has as its system fetal hemoglobin gene HBG1. Briefly: HBG1 Nanostring Assay in CD34+ HSPC erythroid differentiation culture. It is filed as cell-based, human. As to conditions: for EC50: Homo sapiens, 240 h, HBG1 induction, Day10 of erythroid differentiation; for Nanostring Ymax obs (%): relative to a control compound (C1). How it is done: A Nanostring Assay was performed to evaluate the ability of the compounds to induce expression of the fetal hemoglobin gene HBG1 in cells. The data are shown as EC50, with stronger inducers having a lower EC50 value and higher YMax.
Forty eight hours later (day −2), the cells were passaged at a density of 200,000 cells/ml (100 ul/well in 96well culture plate) in complete expantion media. The cells were plated at 200,000 cells/ml on day 0 and day 3, 400,000 cells/ml on day 5 in phase 1 erythroid differentiation containing StemSpan with 2.5 U/mL of EPO (R&D systems, 287-TC-500), 0.5 mg/mL of Holo-Transferrin (Sigma, T0665-500MG), 1× Glutamine (Gluta-Max) (Gibco, 35050-061), 5 μL/mL Lipid Mixture (Sigma, L0288-100ML), 50 ng/mL SCF (R&D Systems, 255-SV-050), 10 ng/mL IL-3 (R&D Systems, 203-IL010) and 10 ng/mL Insulin (Sigma, I9278-5ML) all 200 μl per well in 96 well culture plate. Cells were then passaged at 500,000 cells/ml and 200 μl per well on day 7 in phase 2 Erythroid differentiation (Phase 1 erythroid differentiation removing IL-3) until collection day (Day10). The culture conditions were used for both control DMSO as well as experimental treatments.
For all cell pasagings, cells were centrifuged at 300 g for 8 minutes at room temperature and cell number were normalized by MANTIS and Integra VIAFLO 384. All the compounds are diluted in DMSO and added to complete media by Formulatrix FAST and mixed starting from day −2. Cells were counted by Luna cell counter with AOPI Staining Solution (Nexcelom Bioscience, CS2-0106-25 mL) on day-2. Cells were counted by BD FACSCelesta Flow Cytometer with CountBright™ Plus Absolute Counting Beads (Thermal Fisher Scientific, C36995) and SYTOX AADvanced™ Ready Flow™ Reagent (Invitrogen, R37173) for other passages. Cells were cultured at 37° C. and 5% CO2. DMSO concentration was kept at 0.1% to minimize any effects to the cells by the vehicle. […] Compound plates were kept at room temperature to protect from light to avoid multiple freeze and thaw cycle.
On the collection day (Day10), 100K cells were collected and stored at −80° C. For direct hybridization for Nanostring, 100K cell pellet was lyzed in 25 μL of RLT (QIAGEN, 79216) with 1×β-Mercaptoethanol (Gibco, 21985-023) and shaked at 300-500 RPM for 5 minutes at room temperature. Cell lysate was stored in −80° C. after lysis.
All hybridizations were done in a total volume of 15 μL (3 μL of RNA lysate added to master mix of 12 μL probe A/B, capture probe/reporter probes, proteinase K and attenuation oligos suspended in hybridization buffer). Samples were hybridized at 67° C. for 22 hr. Following hybridization, the tripartide complexes were purified, immobilized by nCounter Prep Station and imaged by Digital Analyzer (nCounter MAX/FLEX Analysis System), to generate digital counts of barcodes corresponding to each target in the multiplexed reaction. Labeled barcodes obtained from unamplified extracts were counted at 555 images or field of view (FOV). The barcode counts for each sample were recorded in Reporter Code Count (RCC) files that are imported into nSolver analysis software (provided with CodeSet by NS) for quality control evaluation.
The quality control (QC) metric included limit of detection QC by checking for wells with less than 100 total counts for positive controls.
Hybridization signals were normalized against the ERCC positive controls and CodeSet Content (housekeeping gene). Briefly, this involved first calculating a sample-specific scaling factor by calculating arithmetic mean of geomeans of all ERCC positive controls with counts more than zero in all samples. Then this arithmetic mean was divided by the geometric mean of each lane to generate a lane-specific normalization factor. All negative controls and target-specific signal values were then normalized by multiplying counts values with their sample-specific scaling factor. The acceptable range for scaling factors is 0.3-3.0. […]

In test [2] the target is DCN1 (DCUND1) protein PONY domain (Homo sapiens (Human), UniProt Q96GG9). Briefly: TR-FRET assay, DCN1 binding with FAM-labeled probe. Put shortly: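 Biotinylated DCN1 PONY domain, labeled with streptavidin-Tb, was competed against a FAM-labeled non-covalent DCN1 inhibitor probe in buffer with TritonX and 200 mM NaCl. Conditions were 5 nM DCN1 with 20 nM FAM-probe, or 0.31 nM DCN1 with 100 nM FAM-plus 800 nM unlabeled probe. The TR-FRET ratio was read at 1, 5 and 24 h (0.1% DMSO).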
Chain of DCN1 (DCUND1) protein PONY domain (Q96GG9 60-248): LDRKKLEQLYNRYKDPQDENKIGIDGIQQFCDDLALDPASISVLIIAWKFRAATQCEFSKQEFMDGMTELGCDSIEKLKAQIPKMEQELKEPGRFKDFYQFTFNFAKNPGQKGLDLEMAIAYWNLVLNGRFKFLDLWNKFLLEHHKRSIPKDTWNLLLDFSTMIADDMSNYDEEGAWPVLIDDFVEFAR
For orientation: TR-FRET usually uses a lanthanide donor and a delayed reading to cut background.

The target of the next test is DCN1 protein (Homo sapiens (Human), UniProt Q96GG9). Briefly: Intact Protein MS Analysis with the RapidFire-TOF System (covalent adduct formation). As to conditions: MS Emax; 400 nM DCN1, 3 hours at room temperature. It is filed as binding. An outline of the steps:
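Tag-cleaved human DCN1 (400 nM) expressed in E. coli, in 25 mM Tris-HCl, 200 mM NaCl, 1 mM DTT, was incubated with 11 compound concentrations for 3 h at room temperature and quenched with 0.2% formic acid. Intact-protein Q-TOF MS with deconvolution detected the compound adduct mass.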

In test [3] the test system is Cullin-3 (CUL3) neddylation. Briefly: AlphaLISA assay for Cullin-3 (CUL3) neddylation in TF 1 cells. It is filed as cell-based. As to conditions: Homo sapiens, TF-1, 3 h, 3 hours treatment. An outline of the steps: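 TF 1 cells in unsupplemented IMDM treated with compound concentrations for 3 h, then lysed. CUL3 neddylation detected by AlphaLISA (biotinylated anti-NEDD8, anti-CUL3 acceptor beads overnight, streptavidin donor beads 1 h); normalized to vehicle (0%) and 1 μM DI-1548 (100%), IC50 from Hill fits.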
A general note: Alpha assays give light when donor and acceptor beads are brought close together.

Where [4] appears, read: 24 hr after treatment with compound, read-out: TR FRET IC50 24 hr.
Setting [5] is: TR FRET IC50 1 hr (nM), 1 hr after treatment with compound.
[6] abbreviates: read-out: TR FRET IC50 1 hr, 1 hr after treatment with compound.

Read-outs that look alike come from different tables or passages of the source.

As usually defined, the EC50 is the concentration that produces a half-maximal response. A higher EC50 goes with a less potent agent. The term IC50 denotes the concentration that gives 50% inhibition.

Chain of DCN1 protein (Q96GG9 whole entry): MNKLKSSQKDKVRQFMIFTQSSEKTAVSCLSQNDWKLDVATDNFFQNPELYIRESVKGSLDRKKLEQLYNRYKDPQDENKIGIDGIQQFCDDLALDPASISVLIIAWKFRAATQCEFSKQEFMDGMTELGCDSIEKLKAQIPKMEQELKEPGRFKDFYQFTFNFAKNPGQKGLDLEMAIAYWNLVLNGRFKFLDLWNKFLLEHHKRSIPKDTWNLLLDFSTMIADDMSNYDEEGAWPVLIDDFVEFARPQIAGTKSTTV

`CCN1C(=O)[C@@H](NC(=O)c2cccc(C(F)(F)F)c2)[C@@H](c2ccc(F)cc2)c2c(CCNC#N)nn(-c3ccccc3)c21` (racemic) [Compound I-10, rac-N-((4R,5R)-3-(2-cyanamidoethyl)-7-ethyl-4-(4-fluorophenyl)-6-oxo-1-phenyl-4,5,6,7-tetrahydro-1H-pyrazolo[3,4-b]pyridin-5-yl)-3-(trifluoromethyl)benzamide]: in test [1], the EC50 was 100 to 1000 nM; the “Nanostring Ymax obs (%)” value is “++ (Nanostring Ymax greater than 50.0 and less than or equal to 100.0)”. In test [2] (setting [4]), the IC50 was not above 200 nM. Moreover, the IC50 in test [2] (setting [5]) was in the range of 200 to 1000 nM. Besides, the “% Adduct Formation” value on DCN1 protein is “++ (MS Emax % adduct formation greater than 30.0 and less than or equal to 80.0)”.
Take `CCN1C(=O)[C@@H](NC(=O)c2cccc(C(F)(F)F)c2)[C@@H](c2ccc(F)cc2)c2c(C(=O)N3CC[C@@H](C#N)C3)nn(-c3ccccc3)c21` (mixture of isomers) [Compound I-60]: in test [1], the EC50 is more than 1000 nM; the “Nanostring Ymax obs (%)” value is “++ (Nanostring Ymax greater than 50.0 and less than or equal to 100.0)”. In test [2] (setting [4]), the IC50 lay in the range of 200 to 1000 nM. In test [2] (setting [6]), the IC50 was not above 200 nM. Also, the “% Adduct Formation” value on DCN1 protein was “+ (MS Emax % adduct formation greater than or equal to 0.0 and less than or equal to 30.0)”.
For `CCN1C(=O)[C@@H](NC(=O)c2cccc(C(F)(F)F)c2)[C@@H](c2ccc(F)cc2)c2c(CCN(C)C#N)nn(-c3ccccc3)c21` (racemic) [Compound I-151, rac-N-((4R,5R)-7-ethyl-4-(4-fluorophenyl)-3-(2-(N-methylcyanamido)ethyl)-6-oxo-1-phenyl-4,5,6,7-tetrahydro-1H-pyrazolo[3,4-b]pyridin-5-yl)-3-(trifluoromethyl)benzamide], in test [1], the 50% effective concentration (EC50) was more than 1000 nM; the “Nanostring Ymax obs (%)” value was “++ (Nanostring Ymax greater than 50.0 and less than or equal to 100.0)”. The 50% inhibitory concentration (IC50) in test [2] (setting [4]) was not above 200 nM. The half-inhibitory concentration (IC50) in test [2] (setting [5]) was 200 to 1000 nM. The “% Adduct Formation” value at DCN1 protein is “+++ (MS Emax % adduct formation greater than 80.0 and less than or equal to 100.0)”.
Take `C=C(CO)C(=O)NCc1nn(-c2ccccc2)c2c1[C@H](c1ccc(F)cc1)[C@H](NC(=O)c1cccc(C(F)(F)F)c1)C(=O)N2CC` (racemic) [Compound I-116, rac-N-((4R,5R)-7-ethyl-4-(4-fluorophenyl)-3-((2-(hydroxymethyl)acrylamido)methyl)-6-oxo-1-phenyl-4,5,6,7-tetrahydro-1H-pyrazolo[3,4-b]pyridin-5-yl)-3-(trifluoromethyl)benzamide]: in test [1], the EC50 was more than 1000 nM; the “Nanostring Ymax obs (%)” value is “+ (Nanostring Ymax greater than or equal to 0.0 and less than or equal to 50.0)”. In addition, in test [2] (setting [4]), the IC50 was in the range of 200 to 1000 nM. Moreover, the IC50 in test [2] (setting [5]) lay within 200 to 1000 nM. The “% Adduct Formation” value on DCN1 protein was “+ (MS Emax % adduct formation greater than or equal to 0.0 and less than or equal to 30.0)”.
As for `CCN1C(=O)[C@@H](NC(=O)c2cccc(C(F)(F)F)c2)[C@@H](c2ccc(F)cc2)c2c(CN(C#N)CCCCN(C)C)nn(-c3ccccc3)c21` [Compound I-248, ˜{N}-[(4˜{S},5˜{S})-3-[[cyano-[4-(dimethylamino)butyl]amino]methyl]-7-ethyl-4-(4-fluorophenyl)-6-oxo-1-phenyl-4,5-dihydropyrazolo[3,4-b]pyridine-5-yl]-3-(trifluoromethyl)benzamide], the “Nanostring Ymax obs (%)” value in test [1] is “++ (Nanostring Ymax greater than 50.0 and less than or equal to 100.0)”. The IC50 in test [3] is not above 100 nM; in test [2] (setting [4]), not above 200 nM; in test [2] (setting [5]), 200 to 1000 nM.
Compound `C=C(CN(C)CC1COC1)C(=O)NCc1nn(-c2ccccc2)c2c1[C@H](c1ccc(F)cc1)[C@H](NC(=O)c1cccc(C(F)(F)F)c1)C(=O)N2CC` [Compound I-574] gave a half-maximal effective concentration (EC50) in test [1] not above 100 nM. In addition, the “Nanostring Ymax obs (%)” value in test [1] was “++ (Nanostring Ymax greater than 50.0 and less than or equal to 100.0)”. Besides, the half-maximal inhibitory concentration (IC50) in test [3] is not above 100 nM; in test [2] (setting [4]), not above 200 nM; in test [2] (setting [6]) it was not above 200 nM.
Take `CCN1C(=O)[C@@H](NC(=O)c2cccc(C(F)(F)F)c2)[C@@H](c2ccc(F)cc2)c2c(CN(C#N)CCCN(C)C)nn(-c3ccccc3)c21` [Compound I-247, ˜{N}-[(4˜{S},5˜{S})-3-[[cyano-[3-(dimethylamino)propyl]amino]methyl]-7-ethyl-4-(4-fluorophenyl)-6-oxo-1-phenyl-4,5-dihydropyrazolo[3,4-b]pyridine-5-yl]-3-(trifluoromethyl)benzamide]: the EC50 in test [1] is more than 1000 nM. Besides, the “Nanostring Ymax obs (%)” value in test [1] was “++ (Nanostring Ymax greater than 50.0 and less than or equal to 100.0)”. For the same compound, the IC50 was not above 100 nM in test [3], not above 200 nM in test [2] (setting [4]) and not above 200 nM in test [2] (setting [6]).
`C=C(CN1CCC12COC2)C(=O)NCc1nn(-c2ccccc2)c2c1[C@H](c1ccc(F)cc1)[C@H](NC(=O)c1cccc(C(F)(F)F)c1)C(=O)N2CC` [Compound I-644] registered an EC50 in test [1] of more than 1000 nM. The “Nanostring Ymax obs (%)” value in test [1] is “++ (Nanostring Ymax greater than 50.0 and less than or equal to 100.0)”. Also, the IC50 in test [3] is not above 100 nM; in test [2] (setting [4]), not above 200 nM; in test [2] (setting [6]) it was not above 200 nM.
On to `CCN1C(=O)[C@@H](NC(=O)c2cccc(C(F)(F)F)c2)[C@@H](c2ccc(F)cc2)c2c([C@H](NC#N)C(F)F)nn(-c3ccccc3)c21` [Compound I-411], for which, in test [1], the EC50 was 100 to 1000 nM. Also, in test [1], the “Nanostring Ymax obs (%)” value was “++ (Nanostring Ymax greater than 50.0 and less than or equal to 100.0)”. Further, the IC50 in test [3] was not above 100 nM; in test [2] (setting [4]) it was not above 200 nM; in test [2] (setting [6]) it was not above 200 nM.
Take `CCN1C(=O)[C@@H](NC(=O)c2cccc(C(F)(F)F)c2)[C@@H](c2ccc(F)cc2)c2c(CN(C#N)CCCO)nn(-c3ccccc3)c21` (racemic) [Compound I-246, N-[rac-(4S,5S)-3-[[cyano(3-hydroxypropyl)amino]methyl]-7-ethyl-4-(4-fluorophenyl)-6-oxo-1-phenyl-4,5-dihydropyrazolo[3,4-b]pyridine-5-yl]-3-(trifluoromethyl)benzamide]: the EC50 in test [1] is more than 1000 nM. Moreover, the “Nanostring Ymax obs (%)” value in test [1] was “++ (Nanostring Ymax greater than 50.0 and less than or equal to 100.0)”. Also, the IC50 was 100 to 1000 nM in test [3], 200 to 1000 nM in test [2] (setting [4]) and 200 to 1000 nM in test [2] (setting [5]).

The record behind these values is US20250163057A1, “DCN-1 MODULATING COMPOUNDS AND METHODS OF USE THEREOF” (Cellarity, Inc., priority 2023, published 2025).
